Measured values taken from ChEMBL document CHEMBL2331330, “Substituted piperidinyl glycinyl 2-cyano-4,5-methano pyrrolidines as potent and stable dipeptidyl peptidase IV inhibitors” (Bioorg Med Chem Lett, 2013).

How the values were obtained:
[1] = Degradation half life of the compound at 30 mM at pH 7.2; format: physicochemical; settings: buffer
[2] = Degradation half life of the compound at 50 mM at pH 7.2; format: physicochemical; settings: buffer
[3] = Degradation half life of the compound at 10 mM at pH 7.2; format: physicochemical; settings: buffer
Dipeptidyl peptidase 4 = Dipeptidyl peptidase 4 (Homo sapiens, UniProt P27487); experiment: Inhibition of human DPP4 using gly-pro-para-nitroanilide as substrate
Sequence of Dipeptidyl peptidase 4 (P27487 whole entry): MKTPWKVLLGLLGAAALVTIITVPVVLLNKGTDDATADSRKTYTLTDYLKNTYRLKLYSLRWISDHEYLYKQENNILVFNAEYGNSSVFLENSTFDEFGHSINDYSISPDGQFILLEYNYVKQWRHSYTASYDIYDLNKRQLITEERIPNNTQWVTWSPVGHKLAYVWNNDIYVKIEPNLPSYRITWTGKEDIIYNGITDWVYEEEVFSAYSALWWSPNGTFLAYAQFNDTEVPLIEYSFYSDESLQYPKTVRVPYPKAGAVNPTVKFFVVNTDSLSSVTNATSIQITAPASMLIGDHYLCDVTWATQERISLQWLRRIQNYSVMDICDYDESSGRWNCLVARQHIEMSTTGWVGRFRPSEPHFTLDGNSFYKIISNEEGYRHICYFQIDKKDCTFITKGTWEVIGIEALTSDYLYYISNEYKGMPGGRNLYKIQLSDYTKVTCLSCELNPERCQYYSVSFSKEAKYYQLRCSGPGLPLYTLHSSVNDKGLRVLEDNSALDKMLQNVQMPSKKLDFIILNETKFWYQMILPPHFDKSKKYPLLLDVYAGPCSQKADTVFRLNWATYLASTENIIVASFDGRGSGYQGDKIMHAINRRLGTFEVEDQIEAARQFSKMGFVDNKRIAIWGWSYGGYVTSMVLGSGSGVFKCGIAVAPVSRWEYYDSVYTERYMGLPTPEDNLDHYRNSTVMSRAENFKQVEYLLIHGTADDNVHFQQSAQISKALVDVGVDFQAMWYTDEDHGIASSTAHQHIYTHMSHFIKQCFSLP

| half-life at 30000 µM [1] | half-life at 50000 µM [2] | half-life at 10000 µM [3] | Ki (Dipeptidyl peptidase 4) | SMILES |
| --- | --- | --- | --- | --- |
| 245 h | 192 h | 473 h |  | CCC1([C@H](N)C(=O)N2[C@H](C#N)C[C@@H]3C[C@@H]32)CCN(C(=O)CC(C)(C)C)CC1 |
|  |  |  | 18 nM | N#C[C@@H]1C[C@@H]2C[C@@H]2N1C(=O)[C@@H](N)C1CCN(C(=O)Cc2ccccc2)CC1 |
|  |  |  | 13 nM | N#C[C@@H]1C[C@@H]2C[C@@H]2N1C(=O)[C@@H](N)C1CCN(S(=O)(=O)c2cccc3ccccc23)CC1 |
| 38.4 h | 38.4 h | 48 h |  | CC(C)(C)CC(=O)N1CCC([C@H](N)C(=O)N2[C@H](C#N)C[C@@H]3C[C@@H]32)CC1 |
